{
  "source": "paper PMC4184702",
  "about": "(Pharmacology Research & Perspectives, 2014)",
  "key": {"α1A adrenergic receptor": {"molecular_target": "T1, α1A adrenergic receptor (Homo sapiens, UniProt P35348)", "T1 construct": "purchased NIMH Psychoactive Drug Screening Program (PDSP)", "T1 sequence (P35348 whole entry)": "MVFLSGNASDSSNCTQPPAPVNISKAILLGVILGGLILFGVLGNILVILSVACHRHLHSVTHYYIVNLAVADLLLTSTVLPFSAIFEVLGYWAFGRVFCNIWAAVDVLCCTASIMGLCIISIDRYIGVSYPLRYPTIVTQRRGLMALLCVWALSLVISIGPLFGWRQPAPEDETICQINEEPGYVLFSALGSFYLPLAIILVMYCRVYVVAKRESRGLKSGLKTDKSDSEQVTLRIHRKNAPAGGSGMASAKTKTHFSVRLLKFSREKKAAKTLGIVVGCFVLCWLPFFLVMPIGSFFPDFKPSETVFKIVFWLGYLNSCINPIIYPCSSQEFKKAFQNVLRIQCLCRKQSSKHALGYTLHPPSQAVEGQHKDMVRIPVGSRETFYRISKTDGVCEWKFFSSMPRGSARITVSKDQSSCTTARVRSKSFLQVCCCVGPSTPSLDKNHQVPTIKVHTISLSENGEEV", "test": "PDSP primary binding, α1A", "conditions": "n = 4, read-out: Inhibition (primary binding competition efficacy), α1A", "method": "(§1) For experimental details, please refer to the Psychoactive Drug Screening Program (PDSP) web site http://pdsp.med.unc.edu/.\n(§2) ^a The default concentration for primary binding experiments is 10 µM (n = 4). ^b Negative inhibition represents a stimulation of binding. ^c BZPR: Benzodiazepine Receptors (rat brain site). ^d DOR: Delta Opioid Receptor; KOR: Kappa Opioid Receptor; MOR: Mu Opioid Receptor. ^e DAT: Dopamine Transporter; NET: Norepinephrine Transporter; SERT: Serotonin Transporter. ^f NMDA: N-methyl-D-aspartate receptor."}, "α2A adrenergic receptor": {"molecular_target": "T2, α2A adrenergic receptor (Homo sapiens, UniProt P08913)", "T2 construct": "purchased NIMH Psychoactive Drug Screening Program (PDSP)", "T2 sequence (P08913 whole entry)": "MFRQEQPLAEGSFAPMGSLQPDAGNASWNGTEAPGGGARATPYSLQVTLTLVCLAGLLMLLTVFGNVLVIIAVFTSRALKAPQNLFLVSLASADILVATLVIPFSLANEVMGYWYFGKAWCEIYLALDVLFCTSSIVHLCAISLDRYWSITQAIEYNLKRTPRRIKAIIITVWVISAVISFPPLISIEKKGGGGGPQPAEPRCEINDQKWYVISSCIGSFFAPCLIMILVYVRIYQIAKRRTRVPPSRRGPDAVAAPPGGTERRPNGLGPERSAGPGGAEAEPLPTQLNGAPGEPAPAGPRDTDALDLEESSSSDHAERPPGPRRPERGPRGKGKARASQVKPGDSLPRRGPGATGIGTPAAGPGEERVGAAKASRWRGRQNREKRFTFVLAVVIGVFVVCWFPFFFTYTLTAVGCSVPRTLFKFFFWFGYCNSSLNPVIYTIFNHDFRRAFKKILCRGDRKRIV", "test": "PDSP primary binding, α2A", "conditions": "n = 4, read-out: Inhibition (primary binding competition efficacy), α2A", "method": "as §1, §2"}, "[1]": {"molecular_target": "T3, DAT: Dopamine Transporter (Homo sapiens, UniProt Q01959)", "T3 construct": "purchased NIMH Psychoactive Drug Screening Program (PDSP)", "T3 sequence (Q01959 whole entry)": "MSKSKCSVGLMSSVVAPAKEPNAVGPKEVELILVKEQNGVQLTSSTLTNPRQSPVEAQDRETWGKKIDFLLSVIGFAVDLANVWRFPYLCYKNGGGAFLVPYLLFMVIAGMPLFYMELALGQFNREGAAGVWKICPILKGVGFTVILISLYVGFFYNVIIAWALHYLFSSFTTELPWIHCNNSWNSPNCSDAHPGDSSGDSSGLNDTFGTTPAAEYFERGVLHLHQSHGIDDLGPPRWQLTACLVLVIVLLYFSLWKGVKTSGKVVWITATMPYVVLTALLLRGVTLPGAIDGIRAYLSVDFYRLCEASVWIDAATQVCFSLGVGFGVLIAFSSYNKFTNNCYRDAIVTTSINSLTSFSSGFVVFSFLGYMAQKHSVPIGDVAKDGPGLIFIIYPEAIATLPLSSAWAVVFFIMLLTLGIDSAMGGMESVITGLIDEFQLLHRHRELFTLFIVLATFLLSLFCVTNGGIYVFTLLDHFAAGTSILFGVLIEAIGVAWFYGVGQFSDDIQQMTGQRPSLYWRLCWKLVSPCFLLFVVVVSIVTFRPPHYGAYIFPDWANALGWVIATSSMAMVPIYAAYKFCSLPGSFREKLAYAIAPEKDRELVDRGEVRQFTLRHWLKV", "test": "PDSP primary binding, DAT", "conditions": "n = 4, read-out: Inhibition (primary binding competition efficacy), DAT", "method": "as §1, §2"}, "σ 1 sigma receptor": {"system": "σ 1 sigma receptor", "test": "PDSP primary binding, σ 1", "conditions": "10 µM, n = 4", "method": "as §1, §2"}, "[2]": {"test": "Metabolic stability, liver microsomes, mouse", "format": "in vitro ADME", "conditions": "CD-1, 1.0E-06 M, 1 h"}, "mGluR5": {"system": "mGluR5", "test": "PDSP primary binding, mGluR5", "conditions": "10 µM, n = 4", "method": "as §1, §2"}, "Male Balb/CJ mice": {"system": "Male Balb/CJ mice", "test": "Forced swim test", "format": "in vivo, mouse", "description": "Male Balb/CJ mice (Jackson Laboratories, Bar Harbor, ME) were used in the forced swim test (FST). Upon receipt, mice were assigned unique identification numbers (tail marked) and were group-housed in OptiMICE ventilated cages. Mice were acclimated to the colony room for at least 1 week prior to drug administration. Mice were 8–10 weeks of age at time of FST.\nProcedures have been previously described (Porsolt et al. [1977]). Naïve mice were individually placed into clear glass cylinders (15 cm tall × 10 cm wide, 1 L beakers) containing 23 ± 1°C water 12 cm deep (∼800 mL). […] Thirty minutes following the administration, mice were placed in the water, and the time the animal spent immobile was recorded over a 6-min trial. Immobility was defined as the postural position of floating in the water. Only one session is required for the forced swim test in mice."}, "[3]": {"molecular_target": "T4, NET: Norepinephrine Transporter (Homo sapiens, UniProt P23975)", "T4 construct": "purchased NIMH Psychoactive Drug Screening Program (PDSP)", "T4 sequence (P23975 whole entry)": "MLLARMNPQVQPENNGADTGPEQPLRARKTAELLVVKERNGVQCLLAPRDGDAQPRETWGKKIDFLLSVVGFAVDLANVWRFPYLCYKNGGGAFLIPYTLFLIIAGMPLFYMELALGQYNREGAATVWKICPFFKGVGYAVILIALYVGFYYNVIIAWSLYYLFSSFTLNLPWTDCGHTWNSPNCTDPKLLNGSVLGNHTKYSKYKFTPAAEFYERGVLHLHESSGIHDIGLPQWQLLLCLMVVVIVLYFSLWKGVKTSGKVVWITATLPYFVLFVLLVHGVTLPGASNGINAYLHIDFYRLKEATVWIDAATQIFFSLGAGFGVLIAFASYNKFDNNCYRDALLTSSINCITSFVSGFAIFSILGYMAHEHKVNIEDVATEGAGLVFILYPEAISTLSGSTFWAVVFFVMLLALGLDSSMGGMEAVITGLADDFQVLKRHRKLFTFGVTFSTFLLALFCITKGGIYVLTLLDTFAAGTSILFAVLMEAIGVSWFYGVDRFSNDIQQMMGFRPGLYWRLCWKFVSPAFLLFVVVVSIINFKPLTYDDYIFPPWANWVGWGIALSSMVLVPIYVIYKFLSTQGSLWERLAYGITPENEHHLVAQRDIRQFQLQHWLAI", "test": "PDSP primary binding, NET", "conditions": "n = 4, read-out: Inhibition (primary binding competition efficacy), NET", "method": "as §1, §2"}, "M4 muscarinic receptor": {"molecular_target": "T5, M4 muscarinic receptor (Homo sapiens, UniProt P08173)", "T5 construct": "purchased NIMH Psychoactive Drug Screening Program (PDSP)", "T5 sequence (P08173 whole entry)": "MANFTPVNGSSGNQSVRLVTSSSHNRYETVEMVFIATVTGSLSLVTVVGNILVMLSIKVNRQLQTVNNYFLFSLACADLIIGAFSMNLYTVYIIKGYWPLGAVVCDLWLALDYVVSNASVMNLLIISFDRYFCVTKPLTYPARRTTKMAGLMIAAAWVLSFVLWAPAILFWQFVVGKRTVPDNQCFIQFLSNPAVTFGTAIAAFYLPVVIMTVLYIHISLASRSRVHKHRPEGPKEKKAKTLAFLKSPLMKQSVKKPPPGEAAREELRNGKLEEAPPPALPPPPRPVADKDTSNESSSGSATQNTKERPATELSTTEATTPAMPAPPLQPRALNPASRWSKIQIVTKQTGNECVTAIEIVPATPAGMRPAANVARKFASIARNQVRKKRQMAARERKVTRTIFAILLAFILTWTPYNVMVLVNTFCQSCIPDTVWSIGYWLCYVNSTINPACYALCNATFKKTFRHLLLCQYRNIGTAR", "test": "PDSP primary binding, M4", "conditions": "n = 4, read-out: Inhibition (primary binding competition efficacy), M4", "method": "as §1, §2"}},
  "note": "“Also recorded” adds a separate entry of the source.",
  "data": [
    {"compound": "OCCc1cc(-c2cncc(OC[C@@H]3CCN3)c2)on1", "note": "[LF-3-88, 2-[5-[5-(2(S)-azetidinylmethoxyl)-3-pyridyl]-3-isoxazolyl]ethanol]", "values": [
      {"measurement": "inhibition at 10 µM", "setting": "α1A adrenergic receptor", "value": -5.5, "unit": "%"},
      {"measurement": "inhibition at 10 µM", "setting": "α2A adrenergic receptor", "value": 23.1, "unit": "%"},
      {"measurement": "inhibition at 10 µM", "setting": "[1]", "value": 18.6, "unit": "%"},
      {"measurement": "Inhibition (primary binding competition efficacy), σ 1", "setting": "σ 1 sigma receptor", "value": 15.8, "unit": "%"},
      {"measurement": "Remaining (metabolic stability)", "setting": "[2]", "value": 81, "unit": "%"},
      {"measurement": "Inhibition (primary binding competition efficacy), mGluR5", "setting": "mGluR5", "value": 6.6, "unit": "%"},
      {"measurement": "immobility in forced swim test", "setting": "Male Balb/CJ mice; 1, 3, and 10 mg/kg, p.o.", "value": "decreased immobility; also recorded: reduce the immobility dose-dependently"},
      {"measurement": "immobility in forced swim test", "setting": "Male Balb/CJ mice; 1 and 3 mg/kg, i.p., 30 min pretreatment, 6-min trial, vs water", "value": "decreased immobility; also recorded: dose-dependently reduced immobility"},
      {"measurement": "minimum effective dose in forced swim test", "setting": "Male Balb/CJ mice; i.p.", "value": 1, "unit": "mg/kg"},
      {"measurement": "inhibition at 10 µM", "setting": "[3]", "value": 0.4, "unit": "%"},
      {"measurement": "inhibition at 10 µM", "setting": "M4 muscarinic receptor", "value": -3.6, "unit": "%"}
    ]}
  ]
}
